Reference: US8394367B2, “IL6R/IL6 chimera for therapy of chemotherapy-induced peripheral neuropathy” (Yeda Research and Development Co., Ltd., priority 2004, dated 2013)
“Also recorded” adds a separate entry of the source.

Columns and labels:
[1] = test system: dorsal root ganglia (DRG) cultures; test: Regeneration of DRG cultures after vincristine removal (βIII-tubulin and GFAP immunostaining); assay type: cell-based, mouse; conditions: 5 nM vincristine day 5 to 10, 6 more days without drug; IL-6-/- DRG
Text: I further investigated whether the IL-6R/IL-6 could have neural regenerative effects by adding IL-6R/IL-6 after the action of vincristine had taken place. Cultures in which the axonal network was formed in the presence of NGF for 5 days were either continued for another 11 days without or with IL-6R/IL-6 (Panel A and B, respectively), or treated for 5 days by vincristine at which time vincristine was removed and culture continued for 6 more days (panels C-F). […] These experiments indicate that IL-6R/IL-6 chimera promotes regeneration of neural and glial cells when added after exposure to the chemotherapeutic agent.
(§1) DRGs were prepared as detailed before (Haggiag et al, 1999, 2001) from embryos of (C57BL/6×129Sv) F1 mice. In some experiments, corresponding IL-6−/− mutant mice were used (Mendel et al, 1998). The DRGs were seeded onto glass coverslips (precoated with a solution of 20 μg/ml poly-D-lysine, 250 μg/ml fibronectin), which were placed in 12-well Costar plates. The regular culture medium was 0.5 ml DMEM/F12 medium with 1% N2 supplement, 10% fetal bovine serum, 2% horse serum, 1.4 mM glutamine (all from Gibco/Invitrogen) and 50 ng/ml NGF (2.5S; Alomone Labs, Jerusalem, Israel). Cultures were maintained at 37° C., 5% CO2 and medium replaced every third day. […]

[2] = test system: dorsal root ganglia (DRG) cultures; test: Protection of the axonal network in DRG cultures intoxicated by vincristine (βIII-tubulin immunostaining); assay type: cell-based, mouse; conditions: 10 nM vincristine for 2 days; βIII-tubulin staining
Protocol: (§2) IL-6R/IL-6 chimera (Chebath et al, 1997) was used to explore prevention against vincristine intoxication in vitro. For this purpose, cultures of dorsal root ganglia (DRG) from mouse embryos (day E17) in which neuronal outgrowth was stimulated by Nerve Growth Factor (NGF), were subsequently exposed to 10 nM vincristine which induces a progressive axonal degeneration process (Wang et al., J Neuropathol Exp Neurol. 2000 July; 59(7):599-606). […] Neurodegeneration was further examined by monitoring the proteolytic activation of caspase-3, which denotes the early stages of apoptosis in various neuropathies (Russell et al, Neurobiol Dis. 1999 October; 6(5):347-63).
as §1

[3] = test system: activated caspase-3 in DRG cultures; test: Caspase-3 activation (apoptosis) in DRG cultures treated with vincristine; assay type: cell-based, mouse; conditions: 10 nM vincristine for 5 days
Protocol: as §2, §1

[4] = test system: peripheral neuropathy caused by carboplatin/paclitaxel; conditions: at the doses and regime tested; cited from earlier work

Molecule | Degeneration of the axonal network 6 days after vincristine removal [1] | Loss of axons in DRG outgrowth caused by vincristine [2] | Caspase-3 activation caused by vincristine [3] | Prevention of CIPN in clinical trials [4]
CC[C@]1(O)C[C@H]2CN(CCc3c([nH]c4ccccc34)[C@@](C(=O)OC)(c3cc4c(cc3OC)N(C=O)[C@H]3[C@@](O)(C(=O)OC)[C@H](OC(C)=O)[C@]5(CC)C=CCN6CC[C@]43[C@@H]65)C2)C1 [vincristine] | extensive degeneration of the axonal network was still observed; also recorded: extensive degeneration of the axonal network was still present | considerable loss of axons; also recorded: extensive neurodegeneration | Positive reaction to antibodies against activated caspase-3 | –
LIF: recombinant leukemia inhibitor factor (LIF), another gp130 activator | – | – | – | ineffective
